The target of assay [1] is Potassium voltage-gated channel subfamily A member 1 (Homo sapiens) (UniProt Q09470). Description: Selectivity interaction (Panel of non-epigenetic targets (kinases, GPCRs, ion channels, and transporters, Eurofins) ) EUB0000271b KCNA1. To be noted: at 1 µM.
In assay [2] the target is Calcium/calmodulin-dependent protein kinase type 1D (Homo sapiens) (UniProt Q8IU85). As to conditions: at 10 µM.
Assay [3] concerns the target T1, Serine/threonine-protein kinase ULK2 (Homo sapiens) (UniProt Q8IYT8).
T1 sequence (whole entry): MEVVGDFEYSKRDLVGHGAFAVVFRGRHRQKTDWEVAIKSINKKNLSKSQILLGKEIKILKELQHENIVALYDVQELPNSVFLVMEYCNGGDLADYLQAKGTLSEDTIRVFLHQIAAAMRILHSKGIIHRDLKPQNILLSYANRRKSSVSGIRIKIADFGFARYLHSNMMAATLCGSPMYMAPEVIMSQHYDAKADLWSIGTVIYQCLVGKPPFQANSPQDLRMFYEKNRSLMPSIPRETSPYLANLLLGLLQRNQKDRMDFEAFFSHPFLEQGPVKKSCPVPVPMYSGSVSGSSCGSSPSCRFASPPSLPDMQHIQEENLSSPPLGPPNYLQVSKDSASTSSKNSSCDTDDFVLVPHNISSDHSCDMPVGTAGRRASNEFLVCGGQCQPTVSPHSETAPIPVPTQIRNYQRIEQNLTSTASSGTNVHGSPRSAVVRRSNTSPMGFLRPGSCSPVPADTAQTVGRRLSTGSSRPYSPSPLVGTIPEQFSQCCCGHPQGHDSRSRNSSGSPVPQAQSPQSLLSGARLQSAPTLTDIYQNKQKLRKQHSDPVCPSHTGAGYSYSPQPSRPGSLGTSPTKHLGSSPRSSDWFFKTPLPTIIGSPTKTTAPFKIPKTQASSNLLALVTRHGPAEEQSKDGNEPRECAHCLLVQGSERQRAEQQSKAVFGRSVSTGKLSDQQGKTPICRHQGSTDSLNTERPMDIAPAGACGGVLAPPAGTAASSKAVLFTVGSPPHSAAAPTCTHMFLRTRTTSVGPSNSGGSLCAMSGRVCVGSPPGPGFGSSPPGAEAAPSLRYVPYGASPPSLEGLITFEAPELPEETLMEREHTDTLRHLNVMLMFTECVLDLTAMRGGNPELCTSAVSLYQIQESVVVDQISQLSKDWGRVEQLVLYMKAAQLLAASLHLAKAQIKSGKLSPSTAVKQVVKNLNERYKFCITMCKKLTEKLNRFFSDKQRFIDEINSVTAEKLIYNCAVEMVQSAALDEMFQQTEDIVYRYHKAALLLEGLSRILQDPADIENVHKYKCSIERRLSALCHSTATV
Description: Selectivity interaction (KinomeScan (DiscoverX)) EUB0000666a ULK2. As to conditions: at 10 µM.

For assay [4], the target named is Calcium/calmodulin-dependent protein kinase type 1D (Homo sapiens) (UniProt Q8IU85). Description: Selectivity interaction (KinomeScan (DiscoverX)) EUB0000229b CAMK1D. To be noted: at 10 µM.
For assay [5], the target named is T2, Cytoplasmic tyrosine-protein kinase BMX (Homo sapiens) (UniProt P51813).
T2 sequence (whole entry): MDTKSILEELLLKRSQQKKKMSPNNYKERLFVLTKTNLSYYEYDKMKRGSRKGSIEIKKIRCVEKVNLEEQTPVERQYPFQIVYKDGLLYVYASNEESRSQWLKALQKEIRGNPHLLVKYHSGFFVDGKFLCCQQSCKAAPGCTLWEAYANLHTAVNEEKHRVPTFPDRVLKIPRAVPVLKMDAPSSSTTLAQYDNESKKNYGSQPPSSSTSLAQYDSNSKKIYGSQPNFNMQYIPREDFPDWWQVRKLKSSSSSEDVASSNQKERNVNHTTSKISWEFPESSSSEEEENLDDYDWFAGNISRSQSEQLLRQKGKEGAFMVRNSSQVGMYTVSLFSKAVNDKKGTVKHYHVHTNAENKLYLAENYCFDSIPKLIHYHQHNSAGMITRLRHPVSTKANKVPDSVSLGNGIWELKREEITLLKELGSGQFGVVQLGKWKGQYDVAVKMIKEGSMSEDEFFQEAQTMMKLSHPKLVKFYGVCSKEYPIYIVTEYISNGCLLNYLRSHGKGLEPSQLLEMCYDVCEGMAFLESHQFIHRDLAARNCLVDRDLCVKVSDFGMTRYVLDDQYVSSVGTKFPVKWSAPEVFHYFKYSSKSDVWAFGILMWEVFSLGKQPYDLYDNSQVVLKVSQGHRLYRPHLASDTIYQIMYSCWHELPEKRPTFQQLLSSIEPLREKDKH
As to the kind of experiment: Selectivity interaction (KinomeScan (DiscoverX)) EUB0001049a BMX. As to conditions: at 1 µM.

The target of assay [6] is T3, Serine/threonine-protein kinase DCLK2 (Homo sapiens) (UniProt Q8N568).
T3 sequence (whole entry): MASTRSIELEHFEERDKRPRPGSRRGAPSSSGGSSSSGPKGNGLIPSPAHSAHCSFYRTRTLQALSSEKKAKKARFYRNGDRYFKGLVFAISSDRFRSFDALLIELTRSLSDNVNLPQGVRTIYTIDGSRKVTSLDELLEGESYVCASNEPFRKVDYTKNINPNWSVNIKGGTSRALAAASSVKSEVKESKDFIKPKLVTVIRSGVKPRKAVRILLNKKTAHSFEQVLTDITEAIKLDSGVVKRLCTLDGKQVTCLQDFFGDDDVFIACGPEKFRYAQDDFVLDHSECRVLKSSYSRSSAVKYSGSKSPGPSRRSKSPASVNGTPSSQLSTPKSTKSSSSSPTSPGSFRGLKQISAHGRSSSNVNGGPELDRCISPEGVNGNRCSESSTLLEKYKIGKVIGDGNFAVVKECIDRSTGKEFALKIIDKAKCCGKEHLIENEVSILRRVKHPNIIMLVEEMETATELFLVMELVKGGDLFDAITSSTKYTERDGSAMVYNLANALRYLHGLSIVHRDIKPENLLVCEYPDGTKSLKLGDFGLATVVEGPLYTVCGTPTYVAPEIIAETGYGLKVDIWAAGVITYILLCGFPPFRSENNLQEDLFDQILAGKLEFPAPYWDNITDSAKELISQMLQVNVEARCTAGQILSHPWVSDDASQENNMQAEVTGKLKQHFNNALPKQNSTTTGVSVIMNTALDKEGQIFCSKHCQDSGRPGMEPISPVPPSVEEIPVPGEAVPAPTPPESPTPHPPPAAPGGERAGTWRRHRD
Description: Selectivity interaction (KinomeScan (DiscoverX)) EUB0001049a DCLK2. As to conditions: at 1 µM.

Assay [7] deals with Ribosomal protein S6 kinase alpha-4 (Homo sapiens) (UniProt O75676). Description: Selectivity interaction (KinomeScan (DiscoverX)) EUB0000695a RPS6KA4. To be noted: at 100 nM.
Sequence of Ribosomal protein S6 kinase alpha-4 (Homo sapiens) (O75676 whole entry, looked up): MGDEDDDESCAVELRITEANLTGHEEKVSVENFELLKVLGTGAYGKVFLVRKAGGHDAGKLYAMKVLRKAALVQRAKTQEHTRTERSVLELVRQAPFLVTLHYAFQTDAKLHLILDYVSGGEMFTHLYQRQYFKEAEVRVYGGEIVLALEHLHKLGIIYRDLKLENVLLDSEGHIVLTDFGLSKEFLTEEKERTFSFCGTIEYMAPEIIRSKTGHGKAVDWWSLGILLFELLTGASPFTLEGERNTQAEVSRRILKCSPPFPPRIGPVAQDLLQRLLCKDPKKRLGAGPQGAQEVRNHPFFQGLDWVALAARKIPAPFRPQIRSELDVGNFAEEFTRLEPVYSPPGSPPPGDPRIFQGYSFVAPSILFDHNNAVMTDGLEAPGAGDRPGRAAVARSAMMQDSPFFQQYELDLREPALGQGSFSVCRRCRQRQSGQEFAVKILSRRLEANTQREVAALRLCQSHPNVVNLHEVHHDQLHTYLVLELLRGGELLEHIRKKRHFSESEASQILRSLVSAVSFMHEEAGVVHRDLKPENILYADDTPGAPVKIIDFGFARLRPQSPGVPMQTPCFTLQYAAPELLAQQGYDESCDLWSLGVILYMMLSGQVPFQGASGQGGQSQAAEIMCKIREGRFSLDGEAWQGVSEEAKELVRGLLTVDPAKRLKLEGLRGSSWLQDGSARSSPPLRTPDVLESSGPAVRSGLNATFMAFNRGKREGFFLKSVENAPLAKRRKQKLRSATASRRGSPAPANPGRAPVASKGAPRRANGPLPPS
Assay [8] deals with Serine/threonine-protein kinase 16 (Homo sapiens, UniProt O75716). As to the kind of experiment: Selectivity interaction (KinomeScan (DiscoverX)) EUB0000618a STK16. To be noted: at 10 µM.
Sequence of Serine/threonine-protein kinase 16 (O75716 whole entry): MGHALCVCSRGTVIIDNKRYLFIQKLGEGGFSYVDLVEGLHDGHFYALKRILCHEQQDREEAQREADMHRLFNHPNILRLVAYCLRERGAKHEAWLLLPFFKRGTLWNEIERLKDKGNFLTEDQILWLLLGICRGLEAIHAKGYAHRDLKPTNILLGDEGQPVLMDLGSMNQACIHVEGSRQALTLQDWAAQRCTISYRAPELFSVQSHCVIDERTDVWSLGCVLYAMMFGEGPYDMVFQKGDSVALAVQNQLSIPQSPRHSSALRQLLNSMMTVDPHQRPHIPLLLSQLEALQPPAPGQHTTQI
The target in assay [9] is Ribosomal protein S6 kinase alpha-2 (Homo sapiens) (UniProt Q15349). Description: Selectivity interaction (KinomeScan (DiscoverX)) EUB0000595a RPS6KA2. As to conditions: at 10 µM.
Sequence of Ribosomal protein S6 kinase alpha-2 (Homo sapiens) (Q15349 whole entry): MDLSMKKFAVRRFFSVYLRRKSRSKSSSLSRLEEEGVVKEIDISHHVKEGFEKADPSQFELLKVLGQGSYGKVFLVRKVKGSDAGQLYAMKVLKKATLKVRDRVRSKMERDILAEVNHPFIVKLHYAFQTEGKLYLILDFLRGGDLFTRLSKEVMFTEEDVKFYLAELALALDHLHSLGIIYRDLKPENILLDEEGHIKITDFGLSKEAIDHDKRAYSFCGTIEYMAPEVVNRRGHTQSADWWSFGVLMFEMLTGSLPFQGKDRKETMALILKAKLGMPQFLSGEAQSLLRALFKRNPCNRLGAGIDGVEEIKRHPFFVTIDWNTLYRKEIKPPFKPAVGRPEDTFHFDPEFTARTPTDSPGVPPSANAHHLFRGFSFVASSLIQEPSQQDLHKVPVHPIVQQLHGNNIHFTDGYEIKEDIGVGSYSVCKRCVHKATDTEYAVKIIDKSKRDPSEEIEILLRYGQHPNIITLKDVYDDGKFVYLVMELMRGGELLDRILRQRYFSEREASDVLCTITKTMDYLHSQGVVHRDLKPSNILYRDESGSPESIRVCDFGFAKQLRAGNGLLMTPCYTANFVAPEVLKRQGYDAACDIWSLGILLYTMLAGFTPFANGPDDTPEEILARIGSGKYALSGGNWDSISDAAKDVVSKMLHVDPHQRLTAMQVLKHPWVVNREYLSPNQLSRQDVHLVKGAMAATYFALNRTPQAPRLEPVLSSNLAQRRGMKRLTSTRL

Molecules are shown by their SMILES.

Sequence of Calcium/calmodulin-dependent protein kinase type 1D (Homo sapiens) (Q8IU85 whole entry, looked up): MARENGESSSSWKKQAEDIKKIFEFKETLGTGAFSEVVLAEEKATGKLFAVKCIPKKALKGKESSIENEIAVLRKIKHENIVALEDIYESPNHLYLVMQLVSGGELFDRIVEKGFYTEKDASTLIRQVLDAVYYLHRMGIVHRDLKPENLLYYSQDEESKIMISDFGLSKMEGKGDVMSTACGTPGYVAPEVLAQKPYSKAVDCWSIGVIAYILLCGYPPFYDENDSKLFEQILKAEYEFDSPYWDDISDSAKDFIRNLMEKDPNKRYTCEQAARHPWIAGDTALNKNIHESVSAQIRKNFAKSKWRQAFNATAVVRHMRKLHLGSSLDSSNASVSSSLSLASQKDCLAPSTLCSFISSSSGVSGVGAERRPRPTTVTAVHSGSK
Sequence of Potassium voltage-gated channel subfamily A member 1 (Homo sapiens) (Q09470 whole entry): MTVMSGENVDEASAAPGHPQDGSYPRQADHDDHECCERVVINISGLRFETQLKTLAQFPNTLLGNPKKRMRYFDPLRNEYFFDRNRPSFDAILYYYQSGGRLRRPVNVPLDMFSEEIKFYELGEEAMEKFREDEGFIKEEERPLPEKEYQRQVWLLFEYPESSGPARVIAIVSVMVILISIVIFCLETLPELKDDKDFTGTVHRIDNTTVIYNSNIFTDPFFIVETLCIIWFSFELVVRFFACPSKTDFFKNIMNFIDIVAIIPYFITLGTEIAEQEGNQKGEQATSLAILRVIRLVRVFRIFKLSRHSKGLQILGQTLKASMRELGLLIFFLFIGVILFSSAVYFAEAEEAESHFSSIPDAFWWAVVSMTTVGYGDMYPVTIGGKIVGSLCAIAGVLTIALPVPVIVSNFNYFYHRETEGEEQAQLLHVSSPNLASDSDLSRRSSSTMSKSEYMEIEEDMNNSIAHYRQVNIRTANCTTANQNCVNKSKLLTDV

On to `Cc1cc(C)cc([C@@H]2c3cc(C)ccc3NC(=O)CN2C(=O)c2ccc(Br)s2)c1`, for which the % of inhibition in assay [1] was -10%. As to `Cc1cc([C@@H](C)Nc2ccccc2C(=O)O)c2nc(N3CCOCC3)cc(=O)n2c1` [AZD-6482], in assay [2], the % of control is 100%. As for `O=C(NOC[C@H](O)CO)c1ccc(F)c(F)c1Nc1ccc(I)cc1F`, the % of control in assay [3] was 97%. Take `COc1cc(N(C)c2ccnc3ccc(C(F)(F)F)cc23)cc(OC)c1OC`: the % binding in assay [4] is 59%.

`COc1cc(Nc2nc(C)cc(-c3cnn4nc(OC)ccc34)n2)cc(C(F)(F)F)c1`: the % of control was determined as 87% in [5] and 84% in assay [6]. In the case of `Cc1cc(F)c(C(=O)Nc2cccc(-c3nncn3C(C)C)n2)cc1-n1cnc(C2CC2)c1`, the % of control in assay [7] was 100%. In assay [8], `O[C@H]1CC[C@H](Nc2ncc3nc(Nc4c(F)cc(F)cc4F)n([C@H]4CCOC4)c3n2)CC1` yielded a % of control of 60%. Compound `COCC(=O)NC/C=C/c1ccc2ncnc(Nc3ccc(Oc4ccc(C)nc4)c(C)c3)c2c1` [CP-724714] yielded a % of control in [9] of 78%.

The record behind these values is ChEMBL document CHEMBL5465560, “Selectivity Literature for EUbOPEN Chemogenomic Library” (2024).
